Literature values in patent publication US20150177227A1, “CELLULAR AND ANIMAL MODELS FOR SCREENING THERAPEUTIC AGENTS FOR THE TREATMENT OF ALZHEIMER'S DISEASE” (priority 2012, published 2015).

Assays:
[1] = test system: plaque; conditions: in vivo
[2] = test system: Alzheimer's disease

For “solanezumab: humanized antibody from Eli Lilly & Co. shown to clear plaque”, the plaque clearance [1] is listed as “clear plaque” and the “benefit trend in phase II clinical trials” value [2] is listed as “neither antibody showed any trend”.
